Results as given in patent US9980925B2, “Xanthohumol in antiarrythmic applications” (University of South Carolina, priority 2016, dated 2018).
Entries after “also recorded” stand apart in the source; their conditions may differ.

Legend:
Format in all cases: cell-based
[1] = system: rat ventricular myocytes; test: SR Ca2+ content and refilling after caffeine-induced Ca2+ release
Experimental: (§1) Whole-cell Ca^2+ transients occurring spontaneously or evoked electrically by field stimulation or voltage-clamp depolarizations or by rapid application of caffeine (2.5 mM for 0.5 or 1 second) were measured fluorometrically after incubating the cells in fluo-4 AM (2 μM) for 30 minutes. The dye was excited by 460 nm light from a LED-based illuminator (Prismatix, Modiin (lite, Israel), and Ca^2+-dependent fluorescent light (>500 nm) was detected with a photomultiplier tube that was placed behind a moveable, adjustable diaphragm, which served to limit the area of detection to the voltage-clamped cell. The cellular fluorescence signals (ΔF/F0) were normalized by dividing the changes in whole-cell fluorescence (ΔF) with the baseline fluorescence (F0).
(§2) The cells were incubated with fluo-4 AM for 30 minutes to allow fluorometric imaging of Ca^2+ sparks and measurements of whole-cell Ca^2+ transients. Rapid perfusion of caffeine was used to release, and SR Ca^2+ stores and assesses their size according to known methodology. Xanthohumol was tested in the range from 5 nM to 1 μM and was used routinely either with acute application of 50 nM drug or by incubation of cells in 10 nM xanthohumol-containing solutions for 30 minutes. All cells were first perfused with Tyrode's solution (137 mM NaCl, 10 mM HEPES, 10 mM glucose, 5.4 mM KCl, 2 mM CaCl, 1 mM MgCl) and thereafter were subjected to the following in the absence or presence of xanthohumol:
The aim of this set of experiments was to examine the effect of the xanthohumol on the SR Ca^2+ content and its recirculation. FIG. 14 compares the magnitude of Ca^2+ transients in electrically stimulated cells paced at 0.5 Hz to Ca^2+ transient that was produced when one stimulus was replaced by a rapid application of 2.5 mM caffeine for 1 second. […] It was concluded that xanthohumol suppresses slightly the Ca^2+ content of the SR, but this effect was fully reversed by isoproterenol.
To probe the effect of xanthohumol on recirculation of SR Ca^2+ and its refilling following depletion of its content by caffeine, the rate of recovery of electrically triggered Ca^2+ transients back to control levels was quantified as a measure of refilling of the SR store. […].

[2] = system: rat ventricular myocytes; test: Global whole-cell Ca2+ transients in field-stimulated cells (Fluo-4 AM); conditions: for increase in Ca2+-transient peaks following a 30-second train of high-frequency stimulation: 0.5 to 2 Hz
Experimental: as §1
Effects of xanthohumol on cardiac Ca^2+ signaling were evaluated in enzymatically dispersed ventricular myocytes that were subjected to field stimulation or voltage-clamp depolarizations in the whole-cell, perforated patch configuration to activate Ca^2+ current (ICa) and SR Ca^2+ release.
as §2
(§3) Each experimental condition was typically sustained for 2-8 minutes to achieve equilibration. To avoid cell damage due to continuous light exposure, recordings were generally performed for intervals of only 5-10 seconds, but repeated every minute. Cells challenged with isoproterenol or low K^+ typically developed more abundant spontaneous Ca^2+ sparks and interdispersed irregular whole-cell Ca^2+ transients, especially in the absence of xanthohumol.

[3] = system: rat ventricular cardiomyocyte; test: ROS production from DCF fluorescence in ventricular myocytes incubated with H2DCFDA
Experimental: A Noran Odyssey XL rapid two-dimensional laser-scanning confocal microscope (Noran Instruments, Madison, Wis.; Zeiss Axiovert TV135) was used with a x63 water-immersion objective, λex=488 nm and λem>515 nm to measure kinetics and subcellular distribution of fluorescence signals according to known protocols. Ca^2+ was imaged after 20- to 30-minute incubation with fluo-4 AM (2 μM). ROS was measured by incubating cells with H2DCFDA (5 μM for 30 minutes), which is cleaved by esterases to form less permeant 2′,7′-dichlorodihydrofluorescein that is then oxidized by free radical compounds to fluorescent 2′,7′-dichlorofluorescein (DCF) as described previously. Fluorescence images of ROS were recorded at low fluorescence intensity and frame rate (about 1 Hz) and required considerable signal averaging (FIG. 1).
Measurements of ROS were also carried out using the oxygen-radical sensitive dye 2′,7′-dichlorofluorescein (DCF) (5 μM). The effect of the xanthohumol was compared with the antioxidant N-acetyl cysteine (10 mM).
ROS production was evaluated from the rate of increase in DCF fluorescence in ventricular myocytes incubated with H2DCFDA.

[4] = target: T1, L-type Ca^2+ current (ICa) (Rattus norvegicus, UniProt P22002); test: Voltage-clamp recording of L-type Ca2+ current (perforated patch)
T1 construct: enzymatically dispersed ventricular myocytes that were subjected to field stimulation or voltage-clamp depolarizations; endogenous in cells; host or cells: freshly isolated ventricular cardiomyocytes of male Sprague-Dawley rats
T1 sequence (P22002 whole entry, other chains not shown): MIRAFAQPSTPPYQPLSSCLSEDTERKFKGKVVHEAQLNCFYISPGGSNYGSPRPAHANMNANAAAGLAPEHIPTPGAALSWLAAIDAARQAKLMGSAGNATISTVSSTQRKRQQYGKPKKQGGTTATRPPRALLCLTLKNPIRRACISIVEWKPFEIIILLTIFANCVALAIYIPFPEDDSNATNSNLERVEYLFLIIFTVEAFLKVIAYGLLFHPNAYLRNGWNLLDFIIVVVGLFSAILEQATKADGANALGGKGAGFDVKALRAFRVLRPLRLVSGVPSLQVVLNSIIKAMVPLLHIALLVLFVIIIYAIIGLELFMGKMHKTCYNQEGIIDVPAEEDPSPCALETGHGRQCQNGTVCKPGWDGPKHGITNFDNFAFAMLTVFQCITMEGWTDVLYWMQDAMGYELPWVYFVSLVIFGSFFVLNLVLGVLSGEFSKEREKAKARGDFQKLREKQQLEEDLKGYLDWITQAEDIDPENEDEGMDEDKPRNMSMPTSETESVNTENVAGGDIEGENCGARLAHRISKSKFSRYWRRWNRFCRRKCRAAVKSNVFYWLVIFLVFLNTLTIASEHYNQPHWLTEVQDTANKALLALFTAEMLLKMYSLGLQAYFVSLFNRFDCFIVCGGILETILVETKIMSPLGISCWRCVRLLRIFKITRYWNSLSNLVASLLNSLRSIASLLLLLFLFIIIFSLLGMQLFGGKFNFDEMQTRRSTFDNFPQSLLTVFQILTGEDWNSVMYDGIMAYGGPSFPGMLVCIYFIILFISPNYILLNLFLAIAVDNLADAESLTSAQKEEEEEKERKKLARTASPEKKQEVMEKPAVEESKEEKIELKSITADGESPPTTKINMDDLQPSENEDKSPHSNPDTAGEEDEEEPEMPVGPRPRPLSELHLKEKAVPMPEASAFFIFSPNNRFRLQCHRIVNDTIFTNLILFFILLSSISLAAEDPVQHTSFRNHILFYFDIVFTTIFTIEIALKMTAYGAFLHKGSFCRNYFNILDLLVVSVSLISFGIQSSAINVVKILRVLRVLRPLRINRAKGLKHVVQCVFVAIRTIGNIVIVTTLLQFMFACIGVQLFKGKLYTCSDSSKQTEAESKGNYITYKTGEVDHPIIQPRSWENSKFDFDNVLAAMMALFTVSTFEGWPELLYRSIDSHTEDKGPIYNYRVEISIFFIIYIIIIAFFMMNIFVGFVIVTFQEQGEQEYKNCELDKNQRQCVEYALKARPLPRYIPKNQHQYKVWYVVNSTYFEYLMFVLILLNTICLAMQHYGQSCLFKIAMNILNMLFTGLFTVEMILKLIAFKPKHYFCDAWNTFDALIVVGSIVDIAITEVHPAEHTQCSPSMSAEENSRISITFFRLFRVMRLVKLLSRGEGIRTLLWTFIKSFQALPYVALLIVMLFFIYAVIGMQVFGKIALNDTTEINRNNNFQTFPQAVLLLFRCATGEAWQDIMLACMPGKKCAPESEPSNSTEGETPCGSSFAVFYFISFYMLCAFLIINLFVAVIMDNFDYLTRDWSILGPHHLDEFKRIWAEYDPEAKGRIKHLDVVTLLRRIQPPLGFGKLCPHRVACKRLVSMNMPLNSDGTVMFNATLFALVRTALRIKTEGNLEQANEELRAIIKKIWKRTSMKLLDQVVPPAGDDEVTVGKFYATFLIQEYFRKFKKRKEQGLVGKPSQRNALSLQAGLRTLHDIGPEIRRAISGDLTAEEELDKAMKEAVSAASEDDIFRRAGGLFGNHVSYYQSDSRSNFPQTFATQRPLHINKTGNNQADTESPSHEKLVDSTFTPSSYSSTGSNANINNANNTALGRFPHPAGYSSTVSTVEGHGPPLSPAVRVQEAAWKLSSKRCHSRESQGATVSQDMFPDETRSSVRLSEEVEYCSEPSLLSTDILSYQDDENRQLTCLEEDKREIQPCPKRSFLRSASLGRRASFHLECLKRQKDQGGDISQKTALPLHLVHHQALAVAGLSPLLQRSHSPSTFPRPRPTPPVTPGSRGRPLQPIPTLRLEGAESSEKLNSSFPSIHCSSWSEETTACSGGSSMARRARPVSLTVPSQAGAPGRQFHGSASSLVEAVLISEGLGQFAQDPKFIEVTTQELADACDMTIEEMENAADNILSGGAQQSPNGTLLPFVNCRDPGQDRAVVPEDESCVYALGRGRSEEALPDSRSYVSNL
T1 sequence (P54290 25-944 partner limits assumed, other chains not shown): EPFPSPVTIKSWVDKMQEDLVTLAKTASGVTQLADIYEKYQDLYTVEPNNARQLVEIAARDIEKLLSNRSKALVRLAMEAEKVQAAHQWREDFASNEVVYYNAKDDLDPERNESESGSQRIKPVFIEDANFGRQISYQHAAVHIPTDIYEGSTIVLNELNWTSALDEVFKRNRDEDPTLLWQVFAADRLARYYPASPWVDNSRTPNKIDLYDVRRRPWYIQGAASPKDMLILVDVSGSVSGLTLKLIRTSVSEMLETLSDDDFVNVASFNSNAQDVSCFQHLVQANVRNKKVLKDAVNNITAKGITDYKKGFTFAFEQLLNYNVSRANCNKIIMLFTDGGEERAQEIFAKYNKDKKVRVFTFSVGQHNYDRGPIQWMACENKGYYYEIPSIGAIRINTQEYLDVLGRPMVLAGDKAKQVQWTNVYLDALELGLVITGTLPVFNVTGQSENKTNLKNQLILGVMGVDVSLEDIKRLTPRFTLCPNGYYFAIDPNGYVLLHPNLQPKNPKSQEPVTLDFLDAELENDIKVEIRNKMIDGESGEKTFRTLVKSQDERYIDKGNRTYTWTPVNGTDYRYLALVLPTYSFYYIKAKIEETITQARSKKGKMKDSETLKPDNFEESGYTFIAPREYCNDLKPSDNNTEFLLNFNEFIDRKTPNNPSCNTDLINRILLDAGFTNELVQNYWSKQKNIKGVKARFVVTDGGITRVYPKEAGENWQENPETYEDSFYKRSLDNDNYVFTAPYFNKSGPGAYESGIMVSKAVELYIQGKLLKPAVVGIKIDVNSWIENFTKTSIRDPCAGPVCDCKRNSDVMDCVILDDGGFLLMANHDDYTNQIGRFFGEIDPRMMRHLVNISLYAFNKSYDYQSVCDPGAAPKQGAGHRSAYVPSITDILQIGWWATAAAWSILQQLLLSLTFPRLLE
T1 sequence (P54290 945-1091 partner limits assumed, other chains not shown): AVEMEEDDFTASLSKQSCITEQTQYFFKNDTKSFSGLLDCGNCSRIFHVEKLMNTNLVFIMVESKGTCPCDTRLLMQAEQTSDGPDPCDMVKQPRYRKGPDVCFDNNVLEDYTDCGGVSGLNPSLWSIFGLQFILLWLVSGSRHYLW
Experimental: (§4) Cells were voltage-clamped in the whole-cell perforated patch configuration at a holding potential of −50 or −60 mV and depolarized to +10 mV to activate L-type Ca^2+ current (ICa) and Ca^2+-induced Ca^2+ release using a Dagan amplifier and pClamp software (Clampex 10.2). Borosilicate patch pipettes were prepared using a horizontal pipette puller (Model P-87; Sutter Instruments, Novato, Calif.). […] Rapid applications of 2.5 mM caffeine and pharmacological interventions were used to elucidate the action mechanism of xanthohumol. Most experiments were performed at 35° C. Voltage-clamp experiments testing dose response were performed at both 25° C. and 35° C.
The effects of xanthohumol on Ca^2+ signaling parameters was compared using concentrations ranging between 1 nM and 1 μM. The experiments were carried out under perforated patch conditions both at room temperature and 35° C. Ventricular myocytes incubated in fluo-4 AM were activated by 100-ms depolarizing pulses from −50 to 10 m versus at room temperature. Ca^2+ current was suppressed by xanthohumol when the concentrations of the drug exceeded 100 nM (FIG. 16, panel A). […] At room temperatures, xanthohumol also slowed the kinetics of relaxation of Ca^2+ transients, as it suppressed its peak, at concentrations exceeding 50 nM (FIG. 16, panels B and C; P<0.001). […] It was concluded that higher metabolic states of myocytes, induced by higher temperatures and adrenergic stimulation, reduce the inhibitory effects of xanthohumol on Ca^2+ transients.

[5] = system: rat ventricular myocytes; test: Ca2+ spark imaging (Fluo-4 epifluorescence)
Experimental: Ca^2+ sparks (Fluo-4, λex=488 nm) were also measured with the LEICA DMI6000 microscope in the epifluorescence mode but now operating at 60-100 frames/s (FIG. 3, FIG. 4 (panels A-C); FIG. 5, FIG. 6, and FIG. 7); the average baseline fluorescence intensity (F0) was calculated from several frames without indication of spontaneous Ca^2+ signals in the form of sparks or waves. Images were filtered by 2 pixel×2 pixel averaging. The amplitudes of the Ca^2+-dependent cellular fluorescence signals were quantified as ΔF/F0, where ΔF is the change in fluorescence measured within selected regions of interest. The time constant of decay of Ca^2+ transients (Tau) was estimated by approximation with a single exponential.
as §2, §3

[6] = system: rat ventricular myocytes; test: Ca2+ transients in voltage-clamped cells (Fluo-4 AM)
Experimental: as §4, §1
The effects of xanthohumol on Ca^2+ signaling parameters was compared using concentrations ranging between 1 nM and 1 μM. The experiments were carried out under perforated patch conditions both at room temperature and 35° C. Ventricular myocytes incubated in fluo-4 AM were activated by 100-ms depolarizing pulses from −50 to 10 m versus at room temperature. Ca^2+ current was suppressed by xanthohumol when the concentrations of the drug exceeded 100 nM (FIG. 16, panel A). […] At room temperatures, xanthohumol also slowed the kinetics of relaxation of Ca^2+ transients, as it suppressed its peak, at concentrations exceeding 50 nM (FIG. 16, panels B and C; P<0.001). […]

[7] = isoproterenol 100 nM, 0.75 Hz, 35° C.
[8] = 50-100 nM, 35° C., field-stimulated
[9] = xanthohumol 50-300 nM co-applied with isoproterenol

Compound: CC(C)NCC(O)c1ccc(O)c(O)c1 (stereo not drawn) [isoproterenol, reference compound]
- fraction of the caffeine-releasable Ca2+ pool released by electrical stimulation ([1]; isoproterenol 100 nM, 0.5 Hz, 35° C.): enhanced
- increase of peak of the triggered Ca2+ transient ([1]; isoproterenol 100 nM, paced at 0.5 Hz): 74.12%
- enhancement of rate of relaxation of Ca2+ transients [2, 7]: about 30%
- increase in frequency of spontaneous events [2, 7]: 3- to 4 fold
- increase in amplitude of the Ca2+ transients ([2]; isoproterenol 100 nM, electrical stimulation 0.75 Hz, 35° C., P=0.0464): 50%

Compound: COc1cc(O)c(CC=C(C)C)c(O)c1C(=O)/C=C/c1ccc(O)cc1 [xanthohumol]
- effect on DCF signal after washout ([3]; after xanthohumol 50 nM): persisted even after washout
- low K+ solution-induced increase of the DCF signal ([3]; xanthohumol 50 nM, low K+ 5.4→1.5 mM): effectively suppressed
- slope of ROS-dependent DCF fluorescence signal (baseline ROS production) ([3]; xanthohumol 50 nM, uncompensated and background-compensated signal): reduced the slope
- effect on ICa ([4]; 10 nM, room temperature): little or no effect
- Ca2+ current ([4]; 100-300 nM, 35° C.): significantly increased
- concentration above which Ca2+ current was suppressed ([4]; room temperature): exceeded 100 nM
- modulatory effect on the uptake kinetics (Tau) following Ca2+ release by caffeine ([1]; in presence of xanthohumol (50 nM)): completely suppressed
- fractional Ca2+ release (ΔFStim/ΔFCaff) ([1]; xanthohumol 50 nM, 0.5 Hz, 35° C.): not influenced; also recorded: not significantly reduced
- rate of refilling of the SR ([1]; xanthohumol 50 nM, after caffeine depletion): significantly reduced
- ΔF/F signal of caffeine-induced Ca2+ release (total Ca2+ content of the SR) ([1]; xanthohumol 50 nM, caffeine 2.5 mM 1 second, 0.5 Hz, 35° C.): significantly reduced
- reduction of peak of the triggered Ca2+ transient ([1]; xanthohumol 50 nM, paced at 0.5 Hz): 22.66%
- diastolic Ca2+ levels ([1]; xanthohumol 50 nM, statistically insignificant): slight increase
- time to suppression of aberrant cellular Ca2+ transients ([2]; 30 nM, electrically stimulated 1 Hz, 25° C.): < 10 s
- peak ΔF/F0, F0, or decay time constant (Tau) of electrically triggered Ca2+ transients ([2]; 100 nM, 35° C.): without modifying
- spontaneously triggered beats induced by rapid electrical stimulation ([2]; 100 nM, 35° C.): suppressed significantly
- frequency of spontaneously triggered Ca2+ oscillations ([2]; 1.5 mM K+, xanthohumol 50 nM): markedly reduced
- concentrations over which Tau was significantly reduced ([2]; 0.5 Hz, 35° C. (FIG. 12 C)): over 300 nM
- toxic concentrations ([2]; 35° C., electrically stimulated cells): about 1 mM
- increase in Ca2+-transient peaks following a 30-second train of high-frequency stimulation ([2]; 50-100 nM xanthohumol, n=4): 12.14%±2.662
- normalized ΔF or F0 ([2]; 50-100 nM, 35° C., 0.5 Hz, statistically insignificant): slight increase
- aberrant secondary Ca2+ release events [2, 8]: blocks
- amplitude of electrically stimulated cellular Ca2+ transients [2, 8]: without decreasing
- time for effects of xanthohumol to start to develop ([2]; continuous recordings (FIG. 9)): less than 10 seconds
- Tau of relaxation ([2]; range of 10-300 nM, 35° C.): without much change
- isoproterenol-triggered spontaneous events [2, 9]: strong suppression
- various parameters of Ca2+ transients (ΔF/F0, F0, Tau) [2, 9]: without having a significant effect
- increase in Ca2+-transient peaks following a 30-second train of high-frequency stimulation ([2]; xanthohumol and isoproterenol (100 nM)): 5.002%±0.6667
- frequency of Ca2+ sparks evoked by withdrawal of extracellular K+ ([5]; 50 nM): markedly decreased
- time to reduction of spark frequency after application ([5]; acute 10 nM): ≤ 2 min
- spontaneous Ca2+ spark frequency ([5]; acute 10 nM, control cells with high baseline spark frequency, 5.4 mM K+): consistently reduced
- spontaneously developed Ca2+ oscillations or sparks ([5]; incubated 30 minutes in 10 nM, 5.4 mM K+): scarce
- frequency of sparks/Ca2+ oscillations on reduction of K+ versus non-incubated cells ([5]; incubated 30 minutes in 10 nM, K+-free solutions, p<0.005): significantly lower
- Ca2+ transients ([6]; 10 nM, room temperature): significantly suppressed
- concentrations above which significant effects on ΔF/F or rate of decay occurred ([6]; 35° C.): exceeding 300 nM
- concentrations above which relaxation of Ca2+ transients was slowed and peak suppressed ([6]; room temperature, P<0.001): exceeding 50 nM

Compound: CC(=O)N[C@@H](CS)C(=O)O [N-acetyl cysteine, reference compound]
- low K+-induced increase of the DCF signal ([3]; N-acetyl cysteine 10 mM, low K+): suppressed
- effect on DCF signal after washout ([3]; after N-acetyl cysteine 10 mM): washout rapidly reversed the DCF signal
